This note sets out measurements from patent US11466019B2, “Triazolo[4,5-d] pyramidine derivatives and their use as purine receptor antagonists” (Vernalis (R&D) Limited, priority 2008, dated 2022).

A value given as a limit tells only on which side of the number the result lay.

The assay concerns haloperidol-induced deficits in locomotor activity in mice. Briefly: Haloperidol-induced hypolocomotion model (HaloLMA). It is filed as in vivo. The conditions noted are these: female TO mice, intraperitoneal, haloperidol 0.2 mg/kg. The text has this: Evaluation of Potential Anti-Parkinsonian Activity In Vivo: Haloperidol-Induced Hypolocomotion Model
This approach is also considered a valid method for screening drugs with potential antiparkinsonian effects. Thus, the ability of novel adenosine antagonists to block haloperidol-induced deficits in locomotor activity in mice can be used to assess both in vivo and potential antiparkinsonian efficacy.
Female TO mice (25-30 g) are used for all experiments. Animals are housed in groups of 8 (cage size-40 cm (width) by 40 cm (length) by 20 cm (height)) under 12 hour light/dark cycle (lights on 08:00), in a temperature (20±2° C.) and humidity (55±15%) controlled environment. Animals have free access to food and water, and are allowed at least 7 days to acclimatize after delivery before experimental use.
Liquid injectable haloperidol (e.g., 1 mL Serenance ampoules from Baker Norton, Harlow, Essex, each containing haloperidol BP 5 mg) are diluted to a final concentration of 0.02 mg/mL using saline. Test compounds are typically prepared as aqueous suspensions in 8% Tween. All compounds are administered intraperitoneally in a volume of 10 mL/kg.
1.5 hours before testing, mice are administered 0.2 mg/kg haloperidol, a dose that reduces baseline locomotor activity by at least 50%. Test substances are typically administered 5-60 minutes prior to testing. The animals are then placed individually into clean, clear polycarbonate cages (20 cm (width) by 40 cm (length) by 20 cm (height), with a flat perforated, Perspex lid). Horizontal locomotor activity is determined by placing the cages within a frame containing a 3 by 6 array of photocells linked to a computer, which tabulates beam breaks. Mice are left undisturbed to explore for 1 hour, and the number of beams breaks made during this period serves as a record of locomotor activity which is compared with data for control animals for statistically significant differences.
A number of the exemplified compounds of the present invention were tested in this assay and the results obtained are shown in Table 3, below.

On to `Cc1ccc(-c2nc(N)nc3c2nnn3Cc2cccc(CO[C@H]3CCOC3)n2)o1` [Example 1, S-7-(5-methylfuran-2-yl)-3-(6-[tetrahydrofuran-3-yl]oxymethylpyrid-2-ylmethyl)-3H-[1,2,3]triazolo[4,5-d]pyrimidin-5-amine], for which the “In Vivo activity HaloLMA MED” value turned out to be 0.3 mg/kg. As for `COCc1cccc(Cn2nnc3c(-c4cccc(C#N)c4)nc(N)nc32)n1` [Example 24, 7-(3-cyanophenyl)-3-(6-[methoxymethyl]pyrid-2-ylmethyl)-3H-[1,2,3]triazolo[4,5-d]pyrimidin-5-amine], the “In Vivo activity HaloLMA MED” value turned out to be 10 mg/kg. `Cc1csc(-c2nc(N)nc3c2nnn3Cc2cccc(CO[C@H]3CCOC3)n2)n1` [Example 25, S-7-(4-methylthiazol-2-yl)-3-(6-[tetrahydrofuran-3-yl]oxymethylpyrid-2-ylmethyl)-3H-[1,2,3]triazolo[4,5-d]pyrimidin-5-amine]: the “In Vivo activity HaloLMA MED” value worked out at 3 mg/kg. For `COCc1cccc(Cn2nnc3c(-c4cccc(OC)c4)nc(N)nc32)n1` [Example 18, 7-(3-methoxyphenyl)-3-(6-[methoxymethyl]pyrid-2-ylmethyl)-3H-[1,2,3]triazolo[4,5-d]pyrimidin-5-amine], the “In Vivo activity HaloLMA MED” value is on record as <30 mg/kg.
